As usually defined, the inhibition is the share of the control response that was lost under treatment.

23 compounds from ChEMBL document CHEMBL4376830, “Diterpenoids and Bisnorditerpenoids from Blumea aromatica” (2019) can be followed below.

The source made the active and inactive calls. The rule behind the calls is not given here.

For the first assay, the species on record is Mus musculus. The assay can be described thus: Anti-immunosuppressive activity in LPS-activated mouse MDSC assessed as reduction in PD-L1 expression at 20 to 40 uM incubated for 24 hrs by flow cytometry. It counts as functional. A general note: Flow cytometry measures light scatter and fluorescence of single cells or particles in a stream.
Regarding `O=C(O)/C=C/C(=O)O`, the inhibition entry is “inactive”.
With `CCCCOC(=O)[C@@]1(O)C[C@@H](O)[C@@H](OC(=O)/C=C/c2ccc(O)c(O)c2)[C@H](OC(=O)/C=C/c2ccc(O)c(O)c2)C1`, the inhibition entry was “inactive”.
With `C=C/C(C)=C/C[C@H]1[C@](C)(O)[C@@H](O)[C@H](OC(=O)CC(C)C)[C@H]2C(C)(C)CCC[C@@]21C`, the inhibition result was “inactive”.
The same measure, in the same setting: to `CC[C@H](CC[C@@H](C)[C@H]1CC[C@H]2[C@@H]3CC=C4C[C@@H](O)CC[C@]4(C)[C@H]3CC[C@]12C)C(C)C` belongs “inactive”.
`CCC(C)/C(=C/C(=O)O)C(=O)OC` (stereo unspecified): the inhibition result was “inactive”.
`CCC(C)/C(=C/C(=O)O)C(=O)O` (stereo unspecified): the inhibition entry is “inactive”.
On the same count and under the same terms, the result for `CC(=O)/C=C/[C@H]1[C@](C)(O)[C@@H](O)[C@H](O)[C@H]2C(C)(C)CCC[C@@]21C` reads “inactive”; that for `O=C(/C=C/c1ccc(O)c(O)c1)O[C@@H]1C[C@](OC(=O)/C=C/c2ccc(O)c(O)c2)(C(=O)O)C[C@@H](O)[C@@H]1O`, “inactive”; that for `O=C(/C=C/c1ccc(O)c(O)c1)O[C@@H]1C[C@@](O)(C(=O)O)C[C@@H](O)[C@H]1O`, “inactive”.
Still for that read-out and setting: the result for `CC(=O)/C=C/[C@H]1[C@](C)(O)[C@@H](O)[C@H](OC(=O)C=C(C)C)[C@H]2C(C)(C)CCC[C@@]21C` reads “inactive”.
Still for that read-out and setting: to `O=C(/C=C/c1ccc(O)c(O)c1)O[C@@H]1[C@H](O)C[C@](O)(C(=O)O)C[C@H]1OC(=O)/C=C/c1ccc(O)c(O)c1` belongs “inactive”; to `O=C(/C=C/c1ccc(O)c(O)c1)O[C@H]1[C@H](O)C[C@](O)(C(=O)O)C[C@H]1OC(=O)/C=C/c1ccc(O)c(O)c1`, “inactive”; to `C=CC(=C)[C@H](O)C[C@H]1[C@](C)(O)[C@@H](O)[C@H](O)[C@H]2C(C)(C)CCC[C@@]21C`, “inactive”.
On to `O=c1c(O[C@@H]2O[C@H](CO)[C@@H](O)[C@H](O)[C@H]2O)c(-c2ccc(O)cc2)oc2cc(O)cc(O)c12`, for which the inhibition entry is “inactive”.
As to `CC1(C)C[C@H](O)C[C@@](C)(O)/C1=C\C(=O)O`, the inhibition result was “inactive”.
`C=C/C(C)=C/C[C@H]1[C@](C)(O)[C@@H](O)[C@H](O)[C@H]2C(C)(C)CCC[C@@]21C`: the inhibition result is “inactive”.
On the same count and under the same terms, the result for `C=CC(=C)[C@@H](O)C[C@H]1[C@](C)(O)[C@@H](O)[C@H](O)[C@H]2C(C)(C)CCC[C@@]21C` reads “inactive”; that for `C/C=C(/C)C(=O)O[C@H]1[C@H](O)[C@@](C)(O)[C@H](/C=C/C(C)=O)[C@@]2(C)CCCC(C)(C)[C@H]12`, “inactive”; that for `O=Cc1c[nH]c2ccccc12`, “inactive”.
Same read-out and setting: the result for `COC(=O)[C@@]1(O)C[C@@H](O)[C@@H](OC(=O)/C=C/c2ccc(O)c(O)c2)[C@H](OC(=O)/C=C/c2ccc(O)c(O)c2)C1` reads “inactive”.
Regarding `O=C(/C=C/c1ccc(O)c(O)c1)O[C@@H]1C[C@](O)(C(=O)O)C[C@@H](OC(=O)/C=C/c2ccc(O)c(O)c2)[C@@H]1O`, the inhibition result was “inactive”.
Same read-out and setting: the result for `COc1ccc(-c2oc3cc(O)c(OC)c(O)c3c(=O)c2OC)cc1` [SANTIN] reads “inactive”.
`CC(=O)/C=C/[C@H]1[C@](C)(O)[C@@H](O)[C@H](OC(=O)CC(C)C)[C@H]2C(C)(C)CCC[C@@]21C`: the inhibition result is “inactive”.

The test system of a further assay is RAW264.7. Briefly: Anti-inflammatory activity in LPS-stimulated mouse RAW264.7 cells assessed as reduction in TNF-alpha production at 40 uM by ELISA relative to control. The class given is functional. On the technique in general: In an ELISA, binding on a coated surface is turned into a signal by an enzyme label.
For `O=C(/C=C/c1ccc(O)c(O)c1)O[C@@H]1[C@H](O)C[C@](O)(C(=O)O)C[C@H]1OC(=O)/C=C/c1ccc(O)c(O)c1`, the inhibition at 40 µM turned out to be 15.5%.
The same measure, in the same setting: to `CC1(C)C[C@H](O)C[C@@](C)(O)/C1=C\C(=O)O` belongs 27.5%; to `COc1ccc(-c2oc3cc(O)c(OC)c(O)c3c(=O)c2OC)cc1` [SANTIN], 24%.
